Experimental data from patent US9309242B2, “Substituted pyrido[2,3-b]pyrazines as FGFR kinase inhibitors” (priority 2011, dated 2016).

Columns and labels:
[1] = target: T1, Ba/F3-FGFR3-transfected cells (Homo sapiens, UniProt P22607); experiment: Ba/F3-FGFR3 (minus IL3) cellular proliferation assay, Alamar Blue; type: cell-based
T1 construct: BAF3-FGFR3 (MIN IL3) pIC50; other: minus IL3
Method in brief: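 With or without 10 ng/ml murine IL3, FGFR3-dependent Ba/F3 cells were treated 24 h with compound, then viability was gauged by Alamar Blue fluorescence after 4 h (ex 540/em 590 nm).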

KDR (h) = KDR (h) (Homo sapiens, UniProt P35968); experiment: KDR (VEGFR2) (enzymatic assay), TR-FRET; type: biochemical; conditions: read-out: VEGFR 2 (KDR) pIC50 (converted)
Method in brief: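 Read-out is TR-FRET (ex 340 nm, em 620 and 655 nm) in RFU, after an EDTA stop carrying Eu-labelled anti-phosphotyrosine and SA-XL-665 (60 min, RT). The preceding kinase reaction ran 120 min at RT with 150 ng/ml enzyme, 500 nM Btn-Flt3 and 3 μM ATP.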

FGFR3 (h) = FGFR3 (h) (Homo sapiens, UniProt P22607); experiment: FGFR3 (enzymatic assay), TR-FRET; type: biochemical; conditions: read-out: FGFR 3 pIC50 (converted)
Description: Time-Resolved Fluorescence Resonance Energy Transfer (TR-FRET) signal (ex340 nm.

FGFR3 (h), sequence (P22607 23-806): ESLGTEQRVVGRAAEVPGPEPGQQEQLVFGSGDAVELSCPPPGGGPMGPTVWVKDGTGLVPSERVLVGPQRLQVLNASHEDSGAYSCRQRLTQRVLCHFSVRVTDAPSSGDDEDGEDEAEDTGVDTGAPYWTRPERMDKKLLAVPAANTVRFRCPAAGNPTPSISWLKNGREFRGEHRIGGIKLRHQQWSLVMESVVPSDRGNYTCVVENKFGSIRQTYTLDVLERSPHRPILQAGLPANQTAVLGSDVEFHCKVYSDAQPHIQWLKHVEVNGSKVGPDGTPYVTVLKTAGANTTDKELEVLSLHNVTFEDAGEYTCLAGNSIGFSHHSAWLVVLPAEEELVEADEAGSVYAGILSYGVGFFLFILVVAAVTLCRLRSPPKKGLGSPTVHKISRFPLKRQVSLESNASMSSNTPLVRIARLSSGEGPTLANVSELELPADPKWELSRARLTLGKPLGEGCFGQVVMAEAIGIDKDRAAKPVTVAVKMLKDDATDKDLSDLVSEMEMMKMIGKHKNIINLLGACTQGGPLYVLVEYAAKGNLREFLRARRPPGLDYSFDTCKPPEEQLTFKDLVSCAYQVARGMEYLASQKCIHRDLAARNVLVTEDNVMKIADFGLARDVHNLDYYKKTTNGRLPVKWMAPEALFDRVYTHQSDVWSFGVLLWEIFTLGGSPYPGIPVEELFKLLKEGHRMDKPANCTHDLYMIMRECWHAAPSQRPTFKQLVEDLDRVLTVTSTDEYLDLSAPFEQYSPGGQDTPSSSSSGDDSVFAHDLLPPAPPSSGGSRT
KDR (h), sequence (P35968 20-1356): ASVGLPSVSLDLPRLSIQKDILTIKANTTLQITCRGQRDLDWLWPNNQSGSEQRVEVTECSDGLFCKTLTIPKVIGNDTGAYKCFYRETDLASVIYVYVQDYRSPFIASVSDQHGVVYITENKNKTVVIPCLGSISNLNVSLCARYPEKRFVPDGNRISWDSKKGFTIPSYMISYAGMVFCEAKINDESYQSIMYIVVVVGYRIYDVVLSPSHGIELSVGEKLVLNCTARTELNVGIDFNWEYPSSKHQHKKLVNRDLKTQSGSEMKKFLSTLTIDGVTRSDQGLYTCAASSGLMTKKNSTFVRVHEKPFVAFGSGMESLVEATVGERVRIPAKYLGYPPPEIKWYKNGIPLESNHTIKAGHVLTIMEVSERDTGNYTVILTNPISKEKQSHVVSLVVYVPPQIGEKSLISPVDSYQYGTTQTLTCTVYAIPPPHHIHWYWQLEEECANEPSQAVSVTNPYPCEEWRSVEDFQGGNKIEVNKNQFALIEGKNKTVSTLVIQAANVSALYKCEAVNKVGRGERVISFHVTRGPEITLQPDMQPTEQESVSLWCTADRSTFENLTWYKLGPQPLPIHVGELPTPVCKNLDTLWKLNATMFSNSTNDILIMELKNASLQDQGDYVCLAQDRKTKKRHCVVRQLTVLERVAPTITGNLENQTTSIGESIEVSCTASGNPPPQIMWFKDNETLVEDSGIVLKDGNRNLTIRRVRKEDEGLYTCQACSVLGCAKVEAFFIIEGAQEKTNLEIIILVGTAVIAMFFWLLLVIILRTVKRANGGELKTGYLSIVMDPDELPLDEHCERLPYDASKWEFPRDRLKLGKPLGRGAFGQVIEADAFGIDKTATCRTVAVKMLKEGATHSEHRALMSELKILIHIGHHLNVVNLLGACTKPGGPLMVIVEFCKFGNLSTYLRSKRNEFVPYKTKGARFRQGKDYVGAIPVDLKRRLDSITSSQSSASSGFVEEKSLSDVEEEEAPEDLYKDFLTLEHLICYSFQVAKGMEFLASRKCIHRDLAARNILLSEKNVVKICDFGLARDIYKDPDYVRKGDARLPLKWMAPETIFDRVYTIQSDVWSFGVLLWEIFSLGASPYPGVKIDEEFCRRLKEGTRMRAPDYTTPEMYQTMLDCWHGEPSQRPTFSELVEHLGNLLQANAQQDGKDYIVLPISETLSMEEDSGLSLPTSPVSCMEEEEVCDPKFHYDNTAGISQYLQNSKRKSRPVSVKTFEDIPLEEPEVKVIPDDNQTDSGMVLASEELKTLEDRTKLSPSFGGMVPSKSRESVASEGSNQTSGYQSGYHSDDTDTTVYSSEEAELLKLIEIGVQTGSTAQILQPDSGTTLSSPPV
T1 sequence (P22607 whole entry, change not shown): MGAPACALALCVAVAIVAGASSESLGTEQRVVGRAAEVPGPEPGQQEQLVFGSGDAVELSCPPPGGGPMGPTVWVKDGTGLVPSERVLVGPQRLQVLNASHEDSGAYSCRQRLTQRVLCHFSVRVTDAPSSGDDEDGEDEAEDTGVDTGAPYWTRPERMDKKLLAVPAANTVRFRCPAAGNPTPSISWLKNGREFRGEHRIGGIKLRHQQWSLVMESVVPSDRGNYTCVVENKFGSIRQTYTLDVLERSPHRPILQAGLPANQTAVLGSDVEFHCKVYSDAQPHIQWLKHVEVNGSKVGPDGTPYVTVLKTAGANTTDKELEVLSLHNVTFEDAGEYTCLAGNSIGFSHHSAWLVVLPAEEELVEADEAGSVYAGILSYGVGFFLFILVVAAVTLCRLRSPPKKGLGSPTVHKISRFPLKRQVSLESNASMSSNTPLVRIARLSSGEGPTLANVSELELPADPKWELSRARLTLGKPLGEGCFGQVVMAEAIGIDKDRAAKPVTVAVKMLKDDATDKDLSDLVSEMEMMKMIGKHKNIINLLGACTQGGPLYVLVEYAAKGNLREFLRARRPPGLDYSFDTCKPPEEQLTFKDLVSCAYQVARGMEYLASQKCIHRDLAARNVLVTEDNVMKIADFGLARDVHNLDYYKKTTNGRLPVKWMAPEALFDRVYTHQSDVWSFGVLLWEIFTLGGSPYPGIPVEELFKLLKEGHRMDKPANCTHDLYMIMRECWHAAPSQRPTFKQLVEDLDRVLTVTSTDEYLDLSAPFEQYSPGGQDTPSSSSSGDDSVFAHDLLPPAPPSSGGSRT

Structure (SMILES) | BAF3-FGFR3 (MIN IL3) pIC50 [1] | IC50 (KDR (h)) | IC50 (FGFR3 (h)) | melting point
COc1cc(OC)c(F)c(N(CC2CCC(=O)N2CCO)c2ccc3ncc(-c4cnn(C)c4)nc3n2)c1 (single isomer, unassigned) [Compound 218] | ~7.64 | 42.7 nM | 4.17 nM | 130 °C
COc1cc(OC)c(F)c(N(CC2CCC(=O)N2CCO)c2ccc3ncc(-c4cnn(C)c4)nc3n2)c1 (stereo not drawn) [Compound 194] | 6.16 | 126 nM | 8.51 nM | 102 °C
COc1cc(OC)cc(N(Cc2noc(C)n2)c2ccc3ncc(-c4cnn(C)c4)nc3n2)c1 [Compound 186] | ~7.11 | 45.7 nM | 2.69 nM | 177 °C
COc1cc(OC)c(F)c(N(Cc2n[nH]c(=O)o2)c2ccc3ncc(-c4cnn(C)c4)nc3n2)c1 [Compound 284] | 6.42 | 63.1 nM | 1.05 nM | 
COc1cc(/N=c2\ccc3ncc(-c4cnn(C)c4)nc3n2CCN2CCCC2=O)c(F)c(OC)c1 [Compound 156] | 7.27 | 29.5 nM | 1.91 nM | 
COc1cc(OC)c(F)c(N(Cc2ncc[nH]2)c2ccc3ncc(-c4cccnc4)nc3n2)c1 [Compound 190a] | 7.72 | 28.8 nM | 2 nM | 
COc1cc(OC)c(F)c(N(Cc2c(C)noc2C)c2ccc3ncc(-c4cnn(C)c4)nc3n2)c1 [Compound 178] | 6.29 | 61.7 nM | 3.55 nM | 
COc1cc(OC)cc(N(CCN2CCCC2=O)c2ccc3ncc(-c4cnn(C)c4)nc3n2)c1 [Compound 151] | 5.72 | 126 nM | 10.7 nM | 
COc1cc(/N=c2\ccc3ncc(-c4cnn(C)c4)nc3n2Cc2cnn(C)c2)c(F)c(OC)c1 [Compound 196] | ~8.66 | 3.98 nM | 0.912 nM | 
COc1cc(OC)c(F)c(N(Cc2cc(C)no2)c2ccc3ncc(-c4cnn(C)c4)nc3n2)c1 [Compound 185] | 7.64 | 17.8 nM | 0.912 nM | 
COc1cc(OC)c(F)c(N(Cc2ncc[nH]2)c2ccc3ncc(-c4ccncc4)nc3n2)c1 [Compound 211] | ~8.11 | 36.3 nM | 1.51 nM | 
COc1cc(OC)cc(N(Cc2ncc[nH]2)c2ccc3ncc(-c4ccncc4)nc3n2)c1 [Compound 202] | ~7.67 | 61.7 nM | 1.62 nM | 
COc1cc(OC)cc(N(Cc2ncc[nH]2)c2ccc3ncc(-c4cnn(C5CCNCC5)c4)nc3n2)c1 [Compound 227] | 7.63 | 12 nM | 0.891 nM | 
COC(=O)CN(c1ccc2ncc(-c3cnn(C)c3)nc2n1)c1cc(OC)cc(OC)c1F [Compound 214] | ~7.18 | 145 nM | 2.4 nM | 
COc1cc(OC)cc(N(Cc2ncc[nH]2)c2ccc3ncc(-c4ccccc4)nc3n2)c1 [Compound 152] | 8.08 | 15.1 nM | 1.15 nM | 
COc1cc(OC)c(F)c(N(Cc2ncc[nH]2)c2ccc3ncc(-c4ccccc4)nc3n2)c1 [Compound 200] | ~8.13 | ~9.55 nM | 1.45 nM | 
COc1cc(OC)c(F)c(N(Cc2cnn(C)c2)c2ccc3ncc(-c4cnn(C)c4)nc3n2)c1 [Compound 195] | 8.09 | 11.5 nM | 0.871 nM | 
COc1cc(OC)c(F)c(N(CCN)c2ccc3ncc(-c4cnn(C)c4)nc3n2)c1 [Compound 168] | 6.76 | 15.8 nM | 3.16 nM | 
COc1cc(OC)cc(N(Cc2ncc[nH]2)c2ccc3ncc(-c4ccn(C)c4)nc3n2)c1 [Compound 198] | ~8.15 | 4.57 nM | 0.646 nM | 

Structure (SMILES) | BAF3-FGFR3 (MIN IL3) pIC50 [1] | IC50 (KDR (h)) | IC50 (FGFR3 (h)) | melting point
COc1cc(OC)c(F)c(N(CCN2CCOCC2)c2ccc3ncc(-c4cnn(C)c4)nc3n2)c1 [Compound 149] | ~7.66 | 15.5 nM | 2.63 nM | 
Cn1cc(-c2cnc3ccc(N(Cc4ncc[nH]4)c4c(F)c(F)cc(F)c4F)nc3n2)cn1 [Compound 175] | 6.86 | 219 nM | 2 nM | 
COc1cc(OC)cc(N(CCN2CCOCC2)c2ccc3ncc(-c4cnn(C)c4)nc3n2)c1 [Compound 146] | ~7.14 | 41.7 nM | 4.9 nM | 
COc1cc(/N=c2\ccc3ncc(-c4cnn(C)c4)nc3n2CC2COC2)c(F)c(OC)c1 [Compound 143] | 5.42 | 5.01 nM | 0.759 nM | 
COc1cc(/N=c2\ccc3ncc(-c4cnn(C)c4)nc3n2CC2CCC(=O)N2C)c(F)c(OC)c1 (stereo not drawn) [Compound 158] | 7.20 | 6.61 nM | 1.29 nM | 
COc1ccc(Cl)c(N(CC2CCC(=O)N2)c2ccc3ncc(-c4cnn(C)c4)nc3n2)c1Cl (single isomer, unassigned) [Compound 90] | 5.19 | > 1000 nM | 126 nM | 
COc1cc(OC)c(F)c(N(CC2CCOC2)c2ccc3ncc(-c4cnn(C)c4)nc3n2)c1 (single isomer, unassigned) [Compound 170] | 6.78 | 13.5 nM | 2.19 nM | 
COc1cc(OC)cc(N(Cc2nncn2CCO)c2ccc3ncc(-c4cnn(C)c4)nc3n2)c1 [Compound 204] | 6.09 | 302 nM | 15.1 nM | 
COc1cc(OC)cc(N(CC2CCCOC2)c2ccc3ncc(-c4cnn(C)c4)nc3n2)c1 (stereo not drawn) [Compound 166] | 6.65 | 55 nM | 2.63 nM | 
COc1cc(OC)c(F)c(N(Cc2ncc[nH]2)c2ccc3ncc(-c4cnn(CC(C)(C)O)c4)nc3n2)c1 [Compound 240] | ~8.52 | 15.5 nM | 1.82 nM | 
COc1cc(/N=c2\ccc3ncc(-c4cnn(C)c4)nc3n2CCN)c(F)c(OC)c1 [Compound 167] | 6.72 | 16.2 nM | 2.09 nM | 
COc1cc(O)c(F)c(N(Cc2ncc[nH]2)c2ccc3ncc(-c4cnn(C)c4)nc3n2)c1 [Compound 96] | ~8.09 | 11.5 nM | 1.07 nM | 
COc1cc(OC)cc(N(CC2COC2)c2ccc3ncc(-c4cnn(C)c4)nc3n2)c1 [Compound 142] | 5.30 | 74.1 nM | 5.75 nM | 
COc1cc(/N=c2\ccc3ncc(-c4cnn(C)c4)nc3n2Cc2cc(C)no2)c(F)c(OC)c1 [Compound 184] | ~8.15 | 4.79 nM | 1.35 nM | 
COc1cc(OC)c(F)c(N(Cc2ncc[nH]2)c2ccc3ncc(N4CCOCC4)nc3n2)c1F [Compound 215] | 8.18 | 52.5 nM | ~1.26 nM | 
COc1cc(OC)cc(N(Cc2ncc[nH]2)c2ccc3ncc(-c4cn[nH]c4)nc3n2)c1 [Compound 141] | ~8.13 | 12 nM | 0.457 nM | 
COc1cc(OC)cc(N(Cc2ncc[nH]2)c2ccc3ncc(-c4cccnc4)nc3n2)c1 [Compound 182] | ~7.76 | 64.6 nM | 1.15 nM | 
COc1cc(OC)c(F)c(N(CC2COC2)c2ccc3ncc(-c4cnn(C)c4)nc3n2)c1 [Compound 144] | 6.33 | 22.9 nM | 1.74 nM | 
CCn1cc(-c2cnc3ccc(N(Cc4ncc[nH]4)c4cc(OC)cc(OC)c4F)nc3n2)cn1 [Compound 223] | ~8.58 | 7.08 nM | 1.23 nM | 
